This is an account of results in PMC7915588, “Polyphyllin D Shows Anticancer Effect through a Selective Inhibition of Src Homology Region 2-Containing Protein Tyrosine Phosphatase-2 (SHP2)” (Molecules, 2021).

In assay [1] the target is T1, PTPN14 (PTP36) (Homo sapiens, UniProt Q15678).
T1 construct: 908-1187
T1 sequence (Q15678 1-1187): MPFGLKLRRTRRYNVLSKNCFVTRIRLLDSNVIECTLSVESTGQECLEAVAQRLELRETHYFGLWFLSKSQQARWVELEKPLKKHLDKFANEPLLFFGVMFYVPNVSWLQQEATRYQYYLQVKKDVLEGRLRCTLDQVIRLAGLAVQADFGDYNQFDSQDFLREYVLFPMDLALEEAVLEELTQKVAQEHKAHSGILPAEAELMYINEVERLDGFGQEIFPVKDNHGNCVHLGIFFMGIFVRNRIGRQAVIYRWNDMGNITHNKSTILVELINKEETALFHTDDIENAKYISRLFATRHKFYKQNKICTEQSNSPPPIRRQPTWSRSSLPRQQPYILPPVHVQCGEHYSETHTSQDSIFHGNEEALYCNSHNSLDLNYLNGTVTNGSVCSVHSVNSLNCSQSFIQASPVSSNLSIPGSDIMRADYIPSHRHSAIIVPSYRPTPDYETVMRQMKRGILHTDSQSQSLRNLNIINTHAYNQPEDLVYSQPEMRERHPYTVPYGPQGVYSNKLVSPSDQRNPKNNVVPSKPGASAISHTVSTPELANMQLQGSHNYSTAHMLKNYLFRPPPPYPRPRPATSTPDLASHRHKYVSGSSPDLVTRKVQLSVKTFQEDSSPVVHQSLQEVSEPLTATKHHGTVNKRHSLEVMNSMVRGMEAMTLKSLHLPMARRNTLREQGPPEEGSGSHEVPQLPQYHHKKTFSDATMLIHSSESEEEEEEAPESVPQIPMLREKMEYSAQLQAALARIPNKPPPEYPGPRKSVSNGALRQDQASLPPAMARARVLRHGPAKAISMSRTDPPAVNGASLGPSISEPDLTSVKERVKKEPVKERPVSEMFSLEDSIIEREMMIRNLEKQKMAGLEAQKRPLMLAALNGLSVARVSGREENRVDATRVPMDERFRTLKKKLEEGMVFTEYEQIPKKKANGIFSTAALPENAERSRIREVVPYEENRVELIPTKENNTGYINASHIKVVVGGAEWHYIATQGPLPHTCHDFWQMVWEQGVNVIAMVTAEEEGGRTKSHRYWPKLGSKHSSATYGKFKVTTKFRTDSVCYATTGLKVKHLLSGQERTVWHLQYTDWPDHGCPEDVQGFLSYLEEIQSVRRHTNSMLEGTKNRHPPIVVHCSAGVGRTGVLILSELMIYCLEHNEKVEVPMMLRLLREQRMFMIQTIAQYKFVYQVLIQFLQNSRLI
Description: biochemical. The arrangement: Fluorogenic phosphatase assay, DiFMUP hydrolysis by recombinant PTPs, initial velocity, Ex/Em 355/460 nm. The conditions noted are these: read-out: Inhibition by 20 µM polyphyllin D (%). The protocol: (§1) Enzymatic reactions were initiated by the addition of SHP2 (final concentration of 10 nM) to a solution of each of the 658 phytochemical compounds (final concentration of 20 µM) in reaction buffer (20 mM bis-tris pH 6.0, 150 mM NaCl, 2.5 mM dithiothreitol, and 0.01% Triton X-100) containing DiFMUP (final concentration of 140 µM). Changes in the fluorescence intensities were measured continuously for 10 min at Ex/Em = 355/460 nm on a VictorTM X4 multilabel plate reader. Enzyme inhibition was estimated by comparing the reaction velocity in the presence of each compound with that in the absence of any compound. Inhibition of the other PTPs was measured in the same way. Next, we established a screening strategy using a DiFMUP substrate to identify a natural product that inhibits SHP2 activity. Initially, we screened 658 compounds at 20 µM using a 96-well plate system (Figure 2A). […] The selected compounds were tested at 20 µM for SHP2 inhibition, and 14 additional non-receptor-type PTPs (PTP1B, TCPTP, PTPH1, STEP, SHP1, HePTP, PTP-MEG2, PTP-PEST, PTP-BAS, PTP36, PTP-HSCF, PTPD1, LYP, and HD-PTP) were used to investigate the inhibition selectivity. The results were visualized using a heat map analysis by GraphPad Prism (Figure 2B and Table S2 in Supplementary Materials). To identify new SHP2 anticancer natural products, we first performed cloning to express SHP2 protein and then purified it. PTPN11 (Gene ID: 5781) encoding human SHP2 (amino acids sequences 1 to 526) with several extra amino acids were cloned into the MBP-pET 28a (+) vector, which was successfully used to overexpress PTPs with enhanced solubility in an Escherichia coli expression system. Information on amino acids for 15 non-receptor-type PTPs including SHP2 is summarized in Table S3 in the Supplementary Materials. SHP2 was overexpressed in RosettaTM (DE3) and purified using a metal affinity resin (Figure S1 in Supplementary Materials). […] The kcat, KM, and kcat/KM values were determined to be 270 min^−1, 70 μM, and 3.9 μM^−1min^−1, respectively, using the Lineweaver–Burk plot analysis (Table S1 in Supplementary Materials).

In assay [2] the target is T2, PTPN2 (TCPTP) (Homo sapiens, UniProt P17706).
T2 construct: 1-387
T2 sequence (P17706 1-415): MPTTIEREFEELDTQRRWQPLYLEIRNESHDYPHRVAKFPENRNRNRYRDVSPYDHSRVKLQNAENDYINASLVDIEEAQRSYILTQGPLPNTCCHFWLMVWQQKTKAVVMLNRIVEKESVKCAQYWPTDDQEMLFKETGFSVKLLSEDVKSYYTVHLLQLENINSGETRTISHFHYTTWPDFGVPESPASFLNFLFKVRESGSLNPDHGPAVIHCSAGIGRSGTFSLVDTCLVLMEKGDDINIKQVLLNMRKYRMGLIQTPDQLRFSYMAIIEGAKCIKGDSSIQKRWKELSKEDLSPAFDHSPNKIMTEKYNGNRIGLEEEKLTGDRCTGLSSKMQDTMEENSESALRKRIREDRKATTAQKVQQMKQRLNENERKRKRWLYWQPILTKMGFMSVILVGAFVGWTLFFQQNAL
The assay can be described thus: biochemical. Further details: Fluorogenic phosphatase assay, DiFMUP hydrolysis by recombinant PTPs, initial velocity, Ex/Em 355/460 nm. The conditions noted are these: read-out: Inhibition by 20 µM polyphyllin D (%). The protocol:
as §1

In general, inhibition refers to how much of the control response was suppressed. As for `C[C@@H]1CC[C@@]2(OC1)O[C@H]1C[C@H]3[C@@H]4CC=C5C[C@@H](O[C@@H]6O[C@H](CO)[C@@H](O[C@@H]7O[C@@H](CO)[C@H](O)[C@H]7O)[C@H](O)[C@H]6O[C@@H]6O[C@@H](C)[C@H](O)[C@@H](O)[C@H]6O)CC[C@]5(C)[C@H]4CC[C@]3(C)[C@H]1[C@@H]2C` [polyphyllin D], the inhibition at 20 µM in assay [1] was determined as 0%; in assay [2], 7.5%.
